Test results: patent US7390641B2, “Production of peroxidase from plant cell and callus cultures” (Council of Scientific and Industrial Research, priority 2004, dated 2008)
Where two headings read alike, the source gives them in different places.

Tests used:
[1] = system: Vitex extra cellular peroxidase; type: biochemical, Vitex negundo
[2] = system: callus cultures of Nirgundi (Vitex negundo); assay: Effect of growth regulators on callus growth and enzyme activity of callus cultures; type: cell-based; details: MS medium, Vitex negundo leaf callus; result in words
Text: Leaf tissues were taken as explants for callus initiation after being properly washed in 10% Labolene followed by surface sterilization in 0.1% Mercuric chloride under aseptic conditions and inoculated in Murashige and Skoog (MS) medium containing 3% sucrose, 0.8% agar in addition to plant growth regulators like kinetin (6-furfuryl amino purine), BAP (benzyl amino purine), 2,4-D (2,4-dichlorophenoxyacetic acid), NAA (naphthalene acetic acid), IBA (indole-3-butyric acid) alone and in different combinations and sub culturing was also done in similar hormone combinations for proliferation. When no hormone was supplied in the medium, callus growth was very slow albeit showing good peroxidase activity. […] The pH was kept at 5.8 in all the experiments. Once established, the liquid suspension was maintained by the sub-culturing of 10 ml each of 7 day culture into 100 ml of fresh media in 250 ml Erlenmeyer flasks and the CCAs were also maintained by the subsequent sub-culturing of 5 g each of the sample into fresh liquid media and the flasks were placed on a gyratory shaker at 120 rpm in the light at 25° C. Viability as well as activity was maintained even after a period of 6 months.

Compound | Relative activity(%) ([1]; Reagent 1 Mm, None = 100) | Effect on Vitex peroxidase activity (inhibitor / enhancer / no change) ([1]; result in words) | other results
[Cl][Hg][Cl] [HgCl2] | 62 | Inhibitors | inhibition ([1]; HgCl2, text b118): 60%
[Ca+2].[Cl-].[Cl-] [CaCl2] | 103 | no change in activity | 
[N-]=[N+]=[N-].[Na+] [NaN3, sodium azide] | 73 | enhancers | inhibition (reduction in activity) ([1]; 0.1 ml of 1 mM sodium azide in 2.4 ml of total assay volume): 30%
O=C(O)Cc1c[nH]c2ccccc12 [IAA] |  |  | Effect on callus growth and enzyme activity [2]: reduce both the callus growth as well as enzyme activity
O=C(O)COc1ccc(Cl)cc1Cl [2,4-D, 2,4-dichlorophenoxyacetic acid] |  |  | Effect on callus growth and enzyme activity [2]: reduce both the callus growth as well as enzyme activity
O=S(=O)([O-])[O-].[Zn+2] [ZnSO4] | 138 | enhancers | 
O=C(O)CN(CCN(CC(=O)O)CC(=O)O)CC(=O)O [EDTA] |  |  | Effect on Vitex peroxidase activity (inhibitor / enhancer / no change) [1]: enhancers; Relative activity(%) [1]: 113%
[I-].[K+] [KI] | 116 |  | 
c1ccc(CNc2ncnc3[nH]cnc23)cc1 [BA, benzyl amino purine] |  |  | Effect on callus growth and enzyme activity [2]: better callus growth as well as enzyme activity
O=S(=O)([O-])[O-].[Mn+2] [MnSO4] | 131 | enhancers | 
[Cl-].[Na+] [NaCl] |  |  | Effect on Vitex peroxidase activity (inhibitor / enhancer / no change) [1]: enhancers; Relative activity(%) [1]: 110%
O=S(=O)([O-])[O-].[Mg+2] [MgSO4] | 97 | no change in activity | 
